In general, Ki refers to a dissociation constant, usually derived from enzyme kinetics or from competition with a known ligand. Low values mean tighter binding, high ones weaker binding.

For series [1], the target named is T1, muscarinic receptor subtype M2 (Homo sapiens, UniProt P08172).
T1 construct: purchased Receptor Biology division of Perkin Elmer Life Sciences (Beltsville, Md.)
T1 sequence (P08172 1-466): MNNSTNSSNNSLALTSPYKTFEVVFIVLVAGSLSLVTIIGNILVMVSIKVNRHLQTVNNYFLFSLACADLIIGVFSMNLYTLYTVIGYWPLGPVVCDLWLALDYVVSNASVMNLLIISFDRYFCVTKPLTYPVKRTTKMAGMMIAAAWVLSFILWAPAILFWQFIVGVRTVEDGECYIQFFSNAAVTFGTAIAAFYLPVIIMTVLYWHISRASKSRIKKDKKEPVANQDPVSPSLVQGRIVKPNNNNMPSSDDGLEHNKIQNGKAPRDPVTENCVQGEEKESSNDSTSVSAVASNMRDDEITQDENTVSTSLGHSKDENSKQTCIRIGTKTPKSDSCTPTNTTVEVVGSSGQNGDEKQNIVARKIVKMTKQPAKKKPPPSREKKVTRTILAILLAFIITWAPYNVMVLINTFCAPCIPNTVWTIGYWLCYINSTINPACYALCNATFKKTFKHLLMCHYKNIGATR
Put plainly: In vitro muscarinic receptor binding assay ([3H]NMS competition, SPA). To be noted: cloned human receptors in CHO cell membranes, [3H]N-methylscopolamine, average of four determinations. Here is the method: (§1) Affinities of test compounds for muscarinic receptor subtypes M1–M4 were determined. Competition radioligand binding experiments employed 11 drug concentrations run in duplicate. [^3H]N-methylscopolamine (NMS) was used as an antagonist radioligand, at the concentration equal to its equilibrium dissociation constant (Kd) for each receptor subtype. […] Total binding was determined with phosphate buffered saline (PBS). Cloned human receptors permanently expressed in CHO cells were the source of all binding sites. Membranes were purchased from Receptor Biology division of Perkin Elmer Life Sciences (Beltsville, Md.). The assays were run in scintillation proximity assay (SPA) format. Binding mixtures were made in flexible, 96-well, Wallac Micro-Beta plates by the addition of 11 μl of drug dilution, 11 μl of radioligand, and 178 μl of membrane/SPA bead suspension (100 mg of WGA-coated SPA beads, incubated with 5–15 μg protein/plate in 10 ml PBS for 30 min at room temperature, followed by low-speed centrifugation and resuspension in 2 ml PBS). After sealing and incubation at room temperature for 1 hour the plates were counted in a Wallac Micro-Beta scintillation counter. IC50 values were estimated by fitting the data to a one-site competition model: Y=T/(1+10^log(x)−log(IC50)), where Y is the specific CPM's bound at concentration X, and T is the specific CPM's bound in the absence of competitor. Inhibition constants (Ki) were calculated using the Cheng-Prushoff equation (Cheng, Y; Prushoff, W H, Biochem Pharmacol 22: 3099–3108, 1973). Curve fitting and Ki calculations were carried out using GraphPad Prism, version 3.0 (San Diego, Calif.).
(§2) Results are the average of four separate determinations. In vitro Binding

The target in series [2] is T2, muscarinic receptor subtype M4 (Homo sapiens, UniProt P08173).
T2 construct: purchased Receptor Biology division of Perkin Elmer Life Sciences (Beltsville, Md.)
T2 sequence (P08173 1-479): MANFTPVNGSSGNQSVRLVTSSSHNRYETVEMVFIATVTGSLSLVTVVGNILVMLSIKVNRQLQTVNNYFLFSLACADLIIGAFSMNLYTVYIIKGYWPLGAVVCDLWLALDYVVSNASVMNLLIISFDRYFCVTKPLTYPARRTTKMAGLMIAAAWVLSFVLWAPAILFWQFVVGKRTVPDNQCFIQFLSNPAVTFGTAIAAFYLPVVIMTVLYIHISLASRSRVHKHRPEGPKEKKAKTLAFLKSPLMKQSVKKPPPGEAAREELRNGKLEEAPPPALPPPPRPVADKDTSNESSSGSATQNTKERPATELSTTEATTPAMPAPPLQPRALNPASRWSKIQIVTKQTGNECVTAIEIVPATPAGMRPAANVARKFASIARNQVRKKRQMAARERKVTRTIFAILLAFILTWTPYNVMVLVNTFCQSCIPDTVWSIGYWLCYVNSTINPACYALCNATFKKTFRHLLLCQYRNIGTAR
The description is as above. To be noted: cloned human receptors in CHO cell membranes, [3H]N-methylscopolamine, average of four determinations. The procedure:
as §1, §2

The target in series [3] is T3, muscarinic receptor subtype M3 (Homo sapiens, UniProt P20309).
T3 construct: purchased Receptor Biology division of Perkin Elmer Life Sciences (Beltsville, Md.)
Described as above. To be noted: cloned human receptors in CHO cell membranes, [3H]N-methylscopolamine, average of four determinations. The procedure: as §1, §2

Series [4] has as its target T4, muscarinic receptor subtype M1 (Homo sapiens, UniProt P11229).
T4 construct: purchased Receptor Biology division of Perkin Elmer Life Sciences (Beltsville, Md.)
T4 sequence (P11229 1-460): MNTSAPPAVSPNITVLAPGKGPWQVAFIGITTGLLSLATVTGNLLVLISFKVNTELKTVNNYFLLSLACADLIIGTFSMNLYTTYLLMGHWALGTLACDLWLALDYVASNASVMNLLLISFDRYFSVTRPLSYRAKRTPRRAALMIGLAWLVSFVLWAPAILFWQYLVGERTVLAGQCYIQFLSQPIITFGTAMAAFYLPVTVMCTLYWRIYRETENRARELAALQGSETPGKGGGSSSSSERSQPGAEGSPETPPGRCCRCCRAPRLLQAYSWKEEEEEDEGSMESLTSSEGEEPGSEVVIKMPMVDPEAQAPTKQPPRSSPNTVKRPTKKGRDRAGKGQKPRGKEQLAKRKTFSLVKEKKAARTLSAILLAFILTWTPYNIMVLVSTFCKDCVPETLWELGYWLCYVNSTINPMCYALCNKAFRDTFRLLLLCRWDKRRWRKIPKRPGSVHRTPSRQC
The description is as above. To be noted: cloned human receptors in CHO cell membranes, [3H]N-methylscopolamine, average of four determinations. The procedure:
as §1, §2

The target in series [5] is P450 CYP2D6 enzyme (Homo sapiens, UniProt P10635). The series is described as follows: Protection from CYP2D6 metabolism (microsome incubation, HPLC). Conditions: approx. 10 μM [14C]-labeled compound, microsomes with CYP2D6 (20 pmol), 1 mM β-NADPH, pH 7.4, 37° C., 20 min. It is filed as in vitro ADME. The procedure: [^14C]-labeled N,N-diisopropyl-3-(2-hydroxy-5-trifluoromethylphenyl)-3-phenylpropanamine is synthesized, following the general procedure of examples 1–9. Approximately 10 μM of the compound is incubated with microsomes containing P450 CYP2D6 enzyme (20 pmol) in 100 mM potassium phosphate buffer (pH 7.4) and 1 mM β-NADPH at 37° C. in a final volume of 250 μl for 20 min.
The incubations are analyzed for the parent drug and its metabolites by HPLC using standard procedures. The amount of each metabolite is calculated from the resulting radiochromatogram. The retention times of formed metabolites are compared with the retention times of synthesized reference standards, and the identity of the formed metabolites is further confirmed by electrospray ionization mass spectrometry.

T3 sequence (P20309 whole entry): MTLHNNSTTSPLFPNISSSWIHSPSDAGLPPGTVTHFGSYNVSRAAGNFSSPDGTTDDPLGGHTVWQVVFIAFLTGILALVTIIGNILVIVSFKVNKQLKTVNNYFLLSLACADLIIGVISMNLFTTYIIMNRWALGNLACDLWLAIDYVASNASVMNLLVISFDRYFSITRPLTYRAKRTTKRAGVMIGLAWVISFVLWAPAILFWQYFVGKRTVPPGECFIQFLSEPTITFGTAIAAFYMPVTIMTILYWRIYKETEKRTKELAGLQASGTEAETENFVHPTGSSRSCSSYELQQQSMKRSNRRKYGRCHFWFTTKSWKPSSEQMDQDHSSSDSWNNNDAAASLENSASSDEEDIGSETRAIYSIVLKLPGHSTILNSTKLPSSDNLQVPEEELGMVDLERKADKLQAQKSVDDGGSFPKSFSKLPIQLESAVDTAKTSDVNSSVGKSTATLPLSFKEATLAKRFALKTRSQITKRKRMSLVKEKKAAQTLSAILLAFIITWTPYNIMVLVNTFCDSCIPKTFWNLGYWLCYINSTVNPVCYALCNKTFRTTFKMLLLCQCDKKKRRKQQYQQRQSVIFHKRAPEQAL
Chain of P450 CYP2D6 enzyme (P10635 whole entry): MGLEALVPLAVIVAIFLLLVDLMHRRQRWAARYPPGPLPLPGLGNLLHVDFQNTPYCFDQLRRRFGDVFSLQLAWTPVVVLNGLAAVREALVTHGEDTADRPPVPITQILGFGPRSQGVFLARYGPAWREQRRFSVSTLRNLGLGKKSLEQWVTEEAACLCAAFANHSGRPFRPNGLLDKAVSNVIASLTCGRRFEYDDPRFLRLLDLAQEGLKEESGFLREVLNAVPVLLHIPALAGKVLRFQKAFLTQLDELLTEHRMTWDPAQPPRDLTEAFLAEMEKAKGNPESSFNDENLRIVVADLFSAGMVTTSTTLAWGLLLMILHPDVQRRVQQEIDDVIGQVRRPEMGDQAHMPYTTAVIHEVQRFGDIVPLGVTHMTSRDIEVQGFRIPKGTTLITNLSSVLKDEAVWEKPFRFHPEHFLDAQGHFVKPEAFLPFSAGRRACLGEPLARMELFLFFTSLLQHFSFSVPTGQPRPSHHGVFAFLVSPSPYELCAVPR

Consider `CC(C)N(CCC(c1ccccc1)c1cc(C(F)(F)F)ccc1O)C(C)C` (racemic) [N,N-Diisopropyl-3-(2-hydroxy-5-trifluoro-methylphenyl)-3-phenylpropanamine], for which the Ki worked out at 8.4 nM in series [1], 6 nM in series [2], 16 nM in series [3] and 3.9 nM in series [4]. Also, the “oxidation/hydroxylation by P450 CYP2D6 enzyme” value in series [5] is “not readily hydroxylated at the 5-trifluoromethyl substituent”.
In the case of `Cc1ccc(O)c([C@H](CCN(C(C)C)C(C)C)c2ccccc2)c1` [tolterodine, 2-[(1R)-3-(diisopropylamino)-1-phenylpropyl)-4-methylphenol, reference compound], the Ki in series [2] is 0.64 nM; in series [4] it was 0.79 nM.

These data come from patent US7119121B2, “3,3-diphenylpropylamines useful in therapy” (Pfizer Inc., priority 2003, dated 2006).
